Results taken from patent US20230091810A1, “FIRST-IN-CLASS OF SHMT2 AND MTHFD2 INHIBITORS AS ANTITUMOR AGENTS” (Duquesne University of the Holy Spirit, priority 2017, published 2023).

Experiments:
[1] = system: human MIA PaCa-2 pancreatic adenocarcinoma xenografts; test: in vivo efficacy trial with MIA PaCa-2 pancreatic cancer xenografts; parameters: species or system SCID mice
Method: Female ICR SCID mice (10 weeks old; 19 g average body weight) were implanted bilaterally with human MIA PaCa-2 tumors. […] The mice were weighed and tumors were measured with a caliper two-to-three times weekly; mice were sacrificed when the cumulative tumor burden reached 1500 mg. Tumor weights were estimated from two-dimensional measurements, where tumor mass (in mg) = (a x b^2)/2, and a and b are the tumor length and width in mm, respectively. The tumor masses from both tumors on each mouse were added together, and the total mass per mouse was used for calculations of anti-tumor activity. Quantitative end-points include: (i) tumor growth delay [T-C, where T is the median time in days required for the treatment group tumors to reach a predetermined size (e.g., 1000 mg), and C is the median time in days for the control group tumors to reach the same size; tumor-free survivors are excluded from these calculations]; and (ii) T/C (in percent) when treatment (T) and control (C) groups for the control groups reached 700 mg in size (exponential growth phase). The median value of each group was determined (including zeros). Mouse weights were monitored as a gauge of drug toxicity.
Female ICR SCID mice (10 weeks old; 19 g average body weight) were implanted bilaterally with human MIA PaCa-2 PaC tumors.
In vivo efficacy trial with MIA PaCa-2 pancreatic cancer xenografts. Methods for in vivo maintenance of MIA PaCa-2 tumor xenografts and drug efficacy evaluations are analogous to those previously described (58, 62-67). MIA PaCa-2 human pancreatic cancer cells (5 × 10^6 cells/flank) were bilaterally implanted subcutaneously with tumor fragments (30-60 mg) with a 12-gauge trocar in female […] SCID mice (NCI Animal Production Program). The mice were 10 weeks old on day 0 (tumor implant) with an average body weight of 19 g. For the efficacy trial, the mice were maintained on either a folate-deficient diet from Harlan-Teklad (TD.00434) starting 14 days before subcutaneous tumor implant to ensure serum folate levels would approximate those of humans. A separate cohort of mice was fed a folate-replete control diet from Lab Diet (5021). Mice were supplied with food and water ad libitum. Serum folate concentrations were monitored prior to tumor implant and post study by Lactobacillus casei bioassay (68). The mice in each group (folate-deficient and standard diet) were pooled before unselective distribution to the treatment and control groups. […] The drugs were dissolved in 5% ethanol (v/v), 1% Tween-80 (v/v), and 0.5% NaHCO3 and were administered intravenously (0.2 ml/injection). The mice were weighed and tumors were measured with a caliper two-to-three times weekly; mice were sacrificed when the cumulative tumor burden reached 1500 mg. Tumor weights were estimated from two-dimensional measurements, where tumor mass (in mg) = (a × b^2)/2, and a and b are the tumor length and width in mm, respectively. The tumor masses from both tumors on each mouse were added together, and the total mass per mouse was used for calculations of anti-tumor activity. Quantitative end-points include: (i) tumor growth delay [T-C, where T is the median time in days required for the treatment group tumors to reach a predetermined size (e.g., 1000 mg), and C is the median time in days for the control group tumors to reach the same size; tumor-free survivors are excluded from these calculations]; and (ii) T/C (in percent) when treatment (T) and control (C) groups for the control groups reached 700 mg in size (exponential growth phase). The median value of each group was determined (including zeros). Mouse weights were monitored as a gauge of drug toxicity.

HCT116 cells = test: targeted metabolomics with [2,3,3-2H]serine tracer, HCT116 cells; assay type: cell-based, human; settings: 10 µM drug; for increase of total serine: HCT116 WT cells, relative to WT controls; for M+1 serine: WT HCT116 cells
Source text: Identification of the mitochondrial enzyme target for AGF291, AGF320, and AGF347 by targeted metabolomics. […] The cells were processed for LC-MS analyses of total serine, and of M+3, M+2, M+1, and M+0 (unlabeled) serine (where M+n represents species with n deuterium atoms). The results with the drug-treated cells were compared to those for untreated cells. For WT HCT116 cells, the results were compared to those for SHMT2 KO, MTHFD2 KO, and SHMT1 KO cells (KO of SHMT2, MTHFD2, and SHMT1, respectively (20)). For H460 cells, controls included non-targeted control (NTC) and SHMT2 shRNA knockdown (KD) cells.
Targeted Metabolomics. Targeted metabolomics were performed essentially as previously described (47, 53). Briefly, cells (H460, HCT116, MIA PaCa-2) (1 million cells /dish for vehicle-treated samples, 1.5 million cells/dish for drug-treated samples) were seeded in triplicate 60 mm dishes in 5 ml of folate-free RPMI (contains glycine and unlabeled serine) supplemented with 10% dialyzed fetal bovine serum, 1% penicillin/streptomycin, 2 mM L-glutamine, and 25 nM leucovorin. Cells were allowed to adhere for 24 h. […] After 16 h, the cells were washed with PBS (3×), the media was replaced with folate- and serine-free culture media (containing glycine) supplemented with 10% dialyzed fetal bovine serine, 25 nM leucovorin, and [2,3,3-^2H]serine (250 µM), including 10 µM drug or DMSO vehicle. The cells were incubated for 24 h. All incubations were at 37° C. with 5% CO2. The media was aspirated, and cells were washed (3×) rapidly (< 30 s) with 5 mL ice-cold PBS; metabolism was quickly quenched with methanol:water (80:20) at -80° C. Cells were allowed to rock on dry ice for 10 min to cover the entire dish with 80:20 methanol:water (at -80° C.), then harvested by scraping and pipetting into 1.5 mL Eppendorf tubes. The tubes were centrifuged (4° C., 14000 RPM, 10 min) to fully extract metabolites into the methanol:water supernatant. The protein pellet was used for normalization. The supernatants were collected and analyzed by reversed-phase ion-pairing chromatography coupled with negative-mode electrospray-ionization high-resolution mass spectrometry on a stand-alone Orbitrap (ThermoFisher Exactive). Raw metabolite values were adjusted to correct for normal ion distributions and normalized to total proteins from the post-extraction pellet by solubilizing with 0.5 N NaOH and using the Folin-phenol protein method (13). Values below the limit of detection were assigned a value of 100 for normalization. Results for drug-treated and SHMT2 KD cells were normalized to vehicle-treated WT ± formate or NTC ± formate samples, as appropriate.

[2] = IV, AGF291 Q6dx3 start d3, total 23.5 mg/kg, Gemcitabine Q4dx4 start d3, total 480 mg/kg

Row | Compound | T-C (1000 mg) ([1]; AGF347 Q2dx8 at 15 mg/kg/inj, total dose 120 mg/kg, start day 3) | mice disease-free at 122 days ([1]; AGF347 Q2dx8 at 15 mg/kg/inj, total dose 120 mg/kg, 122 days) | increase of total serine (HCT116 cells) | M+1 serine (HCT116 cells) | Mean Body Weight Loss (g/mouse) [1, 2] | Percent Body Weight Loss [1, 2] | median tumor burden on day 14 ([1]; day 14, control cohort 1321 mg) | Median Tumor Burden in mg on d16 (range) ([1]; day 16, IV, AGF291 total 23.5 mg/kg, Gemcitabine total 480 mg/kg) | Tumor Free on d52 ([1]; day 52, mice tumor free/total) | Tumor Growth Delay (T-C) ([1]; median T-C to reach 1000 mg, AGF291 total 23.5 mg/kg, Gemcitabine total 480 mg/kg) | Time to 1000 mg in days (range) ([1]; median, IV, AGF291 total 23.5 mg/kg, Gemcitabine total 480 mg/kg) | weight loss (median nadir) ([1]; nadir on day 17 for AGF291, day 6 for GEM, completely reversible after cessation of therapy) | T/C% ([1]; treated/control median tumor burden, AGF291 7.75 mg/kg/inj Q6dx3, GEM 120 mg/kg/inj every 4 days, start day 3)
1 | (2-amino-4-oxo-3,4-dihydro-5H-pyrrolo[3,2-d]pyrimidin-5-yl)butyl)-2-fluorobenzoyl)-L-glutamic acid [AGF347] | 54 days | 1/5 | ~ 10 fold | nearly complete loss | – | – | – | – | – | – | – | – | –
2 | Nc1nc2ccn(CCCc3ccc(C(=O)N[C@@H](CCC(=O)O)C(=O)O)cc3)c2c(=O)[nH]1 [AGF291] | – | – | ~ 10 fold | nearly complete loss | -1.8 g/mouse | -8.9% | 256 mg | 334 (0-1221) mg | 0/5 | 10.5 days | 23.0 (15.0-51) days | 9% | 19%
3 | Nc1nc2ccn(CCCCCc3ccc(C(=O)N[C@@H](CCC(=O)O)C(=O)O)s3)c2c(=O)[nH]1 [AGF320] | – | – | ~ 10 fold | nearly complete loss | – | – | – | – | – | – | – | – | –
